According to publication PMC2360244 (British Journal of Cancer, 2007):
Where two headings read alike, the source gives them in different places.

Legend:
HDAC1 = HDAC1 (Rattus norvegicus, UniProt Q4QQW4); type: biochemical
Procedure: After centrifugation, the cleared extract was used for immunoprecipitation of HDAC1. […] (Amersham Pharmacia Biotech, Piscataway, NJ, USA) in a total volume of 50 μl enzyme assay buffer (25 mM HEPES (pH 7.4), 1 M sucrose, 0.1 mg ml^−1 BSA and 0.01% (v v^−1) Triton X-100). Incubation was performed for 45 min at 37°C (immunoprecipitates) or 30 min at room temperature (HeLa nuclear extract). Before addition of substrate, HDAC inhibitors were added at increasing concentrations and preincubated for 10 min at room temperature. After incubation, the reaction was quenched with 35 μl stop buffer (1 M HCl and 0.4 M acetic acid). Released [^3H]acetic acid was extracted with 800 μl ethyl acetate and quantified by scintillation counting. Equal amounts of HDAC1 were immunoprecipitated as indicated by western blot analysis. Histone deacetylase 1 activity results are presented as mean±s.d. of three independent experiments on a single lysate. […] Finally, we measured the activities of different HDAC isotypes present in partially purified extract from rat liver using the fluorescent HDAC substrates MAL (unselective), B61 (selective for HDAC1, and to some extent also converted by HDAC3) and B12 (selective for HDAC6).

HDAC6 = molecular target: T1, HDAC6 (Rattus norvegicus, UniProt A0A8I6GM68); test: biochemical; type: biochemical
T1 construct: partially purified extract from rat liver; from tissue; host or cells: rat liver, partially purified extract
Procedure: (§1) After centrifugation, the cleared extract was used for immunoprecipitation of HDAC1. […] Incubation was performed for 45 min at 37°C (immunoprecipitates) or 30 min at room temperature (HeLa nuclear extract). Before addition of substrate, HDAC inhibitors were added at increasing concentrations and preincubated for 10 min at room temperature. After incubation, the reaction was quenched with 35 μl stop buffer (1 M HCl and 0.4 M acetic acid). Released [^3H]acetic acid was extracted with 800 μl ethyl acetate and quantified by scintillation counting. Equal amounts of HDAC1 were immunoprecipitated as indicated by western blot analysis. Histone deacetylase 1 activity results are presented as mean±s.d. of three independent experiments on a single lysate. […] Finally, we measured the activities of different HDAC isotypes present in partially purified extract from rat liver using the fluorescent HDAC substrates MAL (unselective), B61 (selective for HDAC1, and to some extent also converted by HDAC3) and B12 (selective for HDAC6).

[1] = tested on: A2780 ovarian carcinoma cells; test: A2780 tumour cell proliferation, MTT colorimetric assay; type: cell-based, human; settings: 4 days, mean±s.d.
Procedure: Control cells were treated with the combined respective vehicle.

[2] = tested on: H3 acetylation and p21waf1,cip1 in A2780 ovarian carcinoma cells; test: Western blot of acetylated H3 and p21waf1,cip1 in A2780 cells (class I HDAC readout); type: cell-based, human; settings: 24 h, western blot
Procedure: (§2) Human A2780 ovarian carcinoma cells were incubated with the indicated concentrations of HDAC inhibitors. Total cell lysates were prepared and analysed by SDS–PAGE. […] To control for equal loading, blots were stripped and re-probed with mouse monoclonal antiactin IgM (Ab-1, Oncogene Research products, Merck, Darmstadt, Germany). […] Protein–antibody complexes were then visualised by chemiluminescence (Pierce Chemical Co., Perbioscience, Erembodegem, Belgium) or fluorescence (Odyssey) according to manufacturer's instructions.
(§3) Total cell lysates were prepared and analysed by SDS–PAGE. Levels of acetylated H3 and tubulin, and of total levels of H3 and tubulin and of p21^waf1, cip1 and Hsp70 and c-raf protein, were detected using rabbit polyclonal and mouse monoclonal antibodies, followed by ECL detection as indicated in the Methods section. To control for equal loading, blots were stripped and re-probed with antibodies against actin and the nuclear protein Lamin B1. A representative experiment out of three is shown.

[3] = tested on: tubulin acetylation and Hsp70 in A2780 ovarian carcinoma cells; test: Western blot of acetylated tubulin and Hsp70 in A2780 cells (HDAC6 readout); type: cell-based, human; settings: for concentration at which tubulin acetylation (and Hsp70 induction) is evident: western blot
Procedure: as §2, §3

[4] = tested on: HDAC isotypes in partially purified extract from rat liver (MAL, unselective); settings: read-out: Liver extract MAL unselective IC50, substrate MAL
Procedure: as §1

T1 sequence (A0A8I6GM68 whole entry): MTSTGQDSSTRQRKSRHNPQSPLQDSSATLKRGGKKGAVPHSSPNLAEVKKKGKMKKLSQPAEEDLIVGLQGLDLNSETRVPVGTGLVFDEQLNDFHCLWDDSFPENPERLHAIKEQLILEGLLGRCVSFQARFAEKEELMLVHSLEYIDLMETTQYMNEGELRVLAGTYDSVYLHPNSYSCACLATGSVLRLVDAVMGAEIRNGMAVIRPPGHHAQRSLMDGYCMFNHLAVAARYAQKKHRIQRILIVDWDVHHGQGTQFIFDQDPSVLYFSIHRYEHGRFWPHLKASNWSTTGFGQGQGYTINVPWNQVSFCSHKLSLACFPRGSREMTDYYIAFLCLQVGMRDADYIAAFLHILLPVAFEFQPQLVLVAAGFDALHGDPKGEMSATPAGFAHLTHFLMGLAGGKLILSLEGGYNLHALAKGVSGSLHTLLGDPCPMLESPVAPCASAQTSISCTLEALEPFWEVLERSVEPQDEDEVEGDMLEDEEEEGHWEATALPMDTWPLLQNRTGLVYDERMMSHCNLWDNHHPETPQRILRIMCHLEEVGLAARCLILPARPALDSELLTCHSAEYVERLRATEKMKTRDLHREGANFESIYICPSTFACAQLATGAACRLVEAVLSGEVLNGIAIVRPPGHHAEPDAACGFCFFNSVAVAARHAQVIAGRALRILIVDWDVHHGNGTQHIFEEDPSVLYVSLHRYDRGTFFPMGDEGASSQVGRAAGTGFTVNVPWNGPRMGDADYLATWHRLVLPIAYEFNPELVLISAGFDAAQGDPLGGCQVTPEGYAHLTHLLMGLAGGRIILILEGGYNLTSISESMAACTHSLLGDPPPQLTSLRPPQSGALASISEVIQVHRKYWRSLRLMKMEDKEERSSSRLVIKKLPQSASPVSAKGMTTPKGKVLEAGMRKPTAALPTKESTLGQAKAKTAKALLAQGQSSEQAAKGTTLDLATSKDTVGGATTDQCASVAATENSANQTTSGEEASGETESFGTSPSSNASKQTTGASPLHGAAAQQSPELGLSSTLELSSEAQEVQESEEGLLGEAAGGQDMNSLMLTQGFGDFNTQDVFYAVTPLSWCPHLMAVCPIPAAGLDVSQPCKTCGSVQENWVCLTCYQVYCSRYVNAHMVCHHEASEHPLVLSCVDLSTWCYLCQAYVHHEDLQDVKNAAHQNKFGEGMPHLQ
HDAC1, sequence (Q4QQW4 whole entry): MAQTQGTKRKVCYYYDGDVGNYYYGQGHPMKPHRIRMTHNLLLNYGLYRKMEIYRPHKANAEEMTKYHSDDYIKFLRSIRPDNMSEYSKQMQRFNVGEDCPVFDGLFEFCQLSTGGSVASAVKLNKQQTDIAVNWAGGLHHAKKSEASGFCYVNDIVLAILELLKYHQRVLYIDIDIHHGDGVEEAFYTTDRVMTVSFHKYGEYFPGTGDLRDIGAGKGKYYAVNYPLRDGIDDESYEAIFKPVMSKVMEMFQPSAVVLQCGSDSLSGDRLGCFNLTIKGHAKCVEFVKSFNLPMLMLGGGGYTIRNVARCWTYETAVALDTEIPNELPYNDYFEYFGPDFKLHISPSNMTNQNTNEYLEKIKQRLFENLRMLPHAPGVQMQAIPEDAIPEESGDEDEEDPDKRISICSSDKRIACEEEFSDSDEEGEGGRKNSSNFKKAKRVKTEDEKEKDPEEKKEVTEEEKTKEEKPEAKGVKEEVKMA

SMILES | IC50 [1] | concentration at which H3 acetylation is induced [2] | IC50 [4] | concentration at which tubulin acetylation (and Hsp70 induction) is evident ([3]; 24 h) | also measured
Nc1ccccc1NC(=O)c1ccc(CNC(=O)OCc2cccnc2)cc1 [MS-275] | 0.376 ± 0.169 µM | 3000 nM |  |  | Liver extract B61 HDAC1 IC50 (HDAC1; rat liver extract, substrate B61): Inactive; Liver extract B12 HDAC6 IC50 (HDAC6; rat liver extract, substrate B12): Inactive; effect on tubulin acetylation or Hsp70 levels ([3]; 3 μM, 24 h): did not affect tubulin acetylation or Hsp70 levels
Cc1[nH]c2ccccc2c1CCNCc1ccc(/C=C/C(=O)NO)cc1 [Panobinostat] |  | 100 nM | 0.075 ± 0.004 µM | 100 nM | IC50 (HDAC6): 0.089 ± 0.012 µM; substrate preference B61 (HDAC1/HDAC3) vs B12 (HDAC6) (HDAC6; rat liver HDAC preparation): equipotent activity towards both substrates; IC50 ([1]; Homo sapiens, A2780, 96 h): 0.0046 ± 0.0018 µM
CC(/C=C/C(=O)NO)=C\[C@@H](C)C(=O)c1ccc(N(C)C)cc1 [TSA, Trichostatin A] | 0.023 ± 0.008 µM | 300 nM | 0.012 ± 0.0012 µM | 300 nM | IC50 (HDAC6; read-out: Liver extract B12 HDAC6 IC50): 0.0207 ± 0.0026 µM
O=C(CCCCCCC(=O)Nc1ccccc1)NO [Vorinostat, suberoylanilide hydroxamic acid] |  |  |  |  | IC50 (HDAC1; read-out: Liver extract B61 HDAC1 IC50): 1.03 ± 0.201 µM; cellular potency for HDAC6 vs HDAC1 (higher for HDAC6) ([3]; tubulin acetylation vs H3 acetylation): 10 fold
